Assay results taken from ChEMBL document CHEMBL1151820, “Antagonists of the P2X(7) receptor. From lead identification to drug development” (J Med Chem, 2009).

Molecular target: T1, P2X purinoceptor 7 (Homo sapiens, UniProt Q99572)
T1 sequence (Q99572 whole entry): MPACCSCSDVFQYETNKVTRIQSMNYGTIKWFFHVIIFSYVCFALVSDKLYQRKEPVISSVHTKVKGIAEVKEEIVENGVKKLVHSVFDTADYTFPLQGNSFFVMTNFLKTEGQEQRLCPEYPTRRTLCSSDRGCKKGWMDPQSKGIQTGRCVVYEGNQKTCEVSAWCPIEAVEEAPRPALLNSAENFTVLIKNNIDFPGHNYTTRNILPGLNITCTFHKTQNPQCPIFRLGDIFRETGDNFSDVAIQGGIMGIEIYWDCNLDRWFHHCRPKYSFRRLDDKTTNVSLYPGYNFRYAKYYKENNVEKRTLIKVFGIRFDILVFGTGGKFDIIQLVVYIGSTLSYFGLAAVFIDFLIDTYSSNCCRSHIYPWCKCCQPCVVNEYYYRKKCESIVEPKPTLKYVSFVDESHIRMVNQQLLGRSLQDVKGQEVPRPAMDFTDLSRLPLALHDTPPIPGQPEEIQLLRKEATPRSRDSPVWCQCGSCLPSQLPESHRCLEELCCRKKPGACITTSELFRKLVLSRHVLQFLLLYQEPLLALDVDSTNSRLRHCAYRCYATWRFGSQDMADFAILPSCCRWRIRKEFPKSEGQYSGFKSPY
Assay: Antagonist activity at human P2X7 receptor expressed in human U373 cells assessed as inhibition of BzATP-induced Yo-Pro uptake
Assay type: functional, cell-based, U-373MG ATCC
Conditions: not given

Row | SMILES | IC50 [nM]
1 | Fc1ccc(CC2=N[C@H](c3ccccc3)[C@H](c3ccccc3)N2)cc1 | 79.4
2 | Fc1cccc(CNC2=N[C@@H](c3ccccc3)[C@@H](c3ccccc3)N2)c1 | 100
3 | Cc1ccccc1CCC1=N[C@H](c2ccccc2)[C@H](c2ccccc2)N1 | 63.1
4 | Fc1cccc(CC2=N[C@H](c3ccccc3)[C@H](c3ccccc3)N2)c1 | 79.4
5 | Clc1ccccc1CCC1=N[C@@H](c2ccccc2)[C@@H](c2ccccc2)N1 | 63.1
6 | c1ccc(C2=N[C@@H](c3ccccc3)[C@@H](c3ccccc3)N2)cc1 | 3980
7 | c1ccc(CCC2=N[C@H](c3ccccc3)[C@H](c3ccccc3)N2)cc1 | 79.4
8 | Cc1cccc([C@H]2NC(NCc3cccc(F)c3)=N[C@H]2c2cccc(C)c2)c1 | 126
9 | Fc1ccccc1CC1=N[C@H](c2ccccc2)[C@H](c2ccccc2)N1 | 631
10 | c1ccc(CCCC2=N[C@H](c3ccccc3)[C@H](c3ccccc3)N2)cc1 | 501

Further lines, results first:

Row | IC50 [nM] | SMILES
11 | 31.6 | c1ccc([C@H]2N=C(C3Cc4ccccc4C3)N[C@H]2c2ccccc2)cc1
12 | 31.6 | CC(CC1=N[C@H](c2ccccc2)[C@H](c2ccccc2)N1)c1ccccc1 (some centres undefined)
13 | 316 | Cc1ccccc1CC1=N[C@H](c2ccccc2)[C@H](c2ccccc2)N1
14 | 126 | Clc1cccc(CCC2=N[C@H](c3ccccc3)[C@H](c3ccccc3)N2)c1
15 | 631 | c1ccc(CCCCC2=N[C@H](c3ccccc3)[C@H](c3ccccc3)N2)cc1
16 | 398 | Fc1cccc(CNC2=N[C@@H](c3ccccc3Cl)[C@@H](c3ccccc3Cl)N2)c1

Molecular target: T2, P2X purinoceptor 7 (Homo sapiens) (UniProt Q99572)
T2 sequence (whole entry): T1 sequence (Q99572 whole entry)
Conditions: HEK293, at 3 µM

Row | SMILES | inhibition [%]
17 | CC(C)(C)OC(=O)N1CCN(C(=O)[C@H](Cc2ccc(OS(=O)(=O)c3ccccc3)cc2)NC(=O)OCc2ccccc2)CC1 | 59
18 | CCC(=O)N1CCN(C(=O)[C@H](Cc2ccc(OS(=O)(=O)c3ccccc3)cc2)NC(=O)OCc2ccccc2)CC1 | < 10
19 | CC(C)(C)OC(=O)N1CCN(C(=O)[C@H](Cc2ccc(OS(=O)(=O)c3cccc4cccnc34)cc2)NS(=O)(=O)c2cccc3cnccc23)CC1 | 37
20 | CC(C)(C)OC(=O)N1CCN(C(=O)[C@H](Cc2ccc(OS(C)(=O)=O)cc2)NC(=O)OCc2ccccc2)CC1 | < 10
21 | CCC(=O)Oc1ccc(C[C@H](NC(=O)OCc2ccccc2)C(=O)N2CCN(C(=O)OC(C)(C)C)CC2)cc1 | < 10
22 | O=C(N[C@@H](Cc1ccc(OS(=O)(=O)c2ccccc2)cc1)C(=O)N1CCN(S(=O)(=O)c2ccccc2)CC1)OCc1ccccc1 | < 10
23 | CC(C)(C)OC(=O)N1CCN(C(=O)[C@H](Cc2ccc(OS(=O)(=O)c3cccc4cnccc34)cc2)NC(=O)OCc2ccccc2)CC1 | 43
24 | O=C(N[C@@H](Cc1ccc(OS(=O)(=O)c2ccccc2)cc1)C(=O)N1CCN(C(=O)c2ccccc2)CC1)OCc1ccccc1 | 78
25 | CC(C)(C)OC(=O)N1CCN(C(=O)[C@H](Cc2ccc(OS(=O)(=O)c3cccc4cccnc34)cc2)NC(=O)c2ccccc2)CC1 | 13
26 | COc1ccc(S(=O)(=O)Oc2ccc(C[C@H](NC(=O)OCc3ccccc3)C(=O)N3CCN(C(=O)OC(C)(C)C)CC3)cc2)cc1 | 62
27 | CC(C)(C)OC(=O)N1CCN(C(=O)[C@H](Cc2ccc(OS(=O)(=O)c3cccc4cccnc34)cc2)NS(=O)(=O)c2ccccc2)CC1 | < 10
28 | CCOC(=O)N[C@@H](Cc1ccc(OS(=O)(=O)c2cccc3cccnc23)cc1)C(=O)N1CCN(C(=O)OC(C)(C)C)CC1 | < 10

Now from value to compound:

Row | inhibition [%] | SMILES
29 | < 10 | CC(C)(C)OC(=O)N1CCN(C(=O)[C@H](Cc2ccc(OS(=O)(=O)c3cccc4cccnc34)cc2)NS(C)(=O)=O)CC1
30 | 48 | O=C(N[C@@H](Cc1ccc(OS(=O)(=O)c2ccccc2)cc1)C(=O)N1CCN(C(=O)OCc2ccccc2)CC1)OCc1ccccc1
31 | 32 | Cc1ccc(S(=O)(=O)N[C@@H](Cc2ccc(OS(=O)(=O)c3cccc4cccnc34)cc2)C(=O)N2CCN(C(=O)OC(C)(C)C)CC2)cc1
32 | < 10 | CC(C)(C)OC(=O)N1CCN(C(=O)[C@@H](N)Cc2ccc(OS(=O)(=O)c3cccc4cccnc34)cc2)CC1
33 | 71 | Cc1ccc(S(=O)(=O)Oc2ccc(C[C@H](NC(=O)OCc3ccccc3)C(=O)N3CCN(C(=O)OC(C)(C)C)CC3)cc2)cc1
34 | 61 | CC(C)(C)OC(=O)N1CCN(C(=O)[C@H](Cc2ccc(OS(=O)(=O)c3cccc4cccnc34)cc2)NS(=O)(=O)c2cccc3cccnc23)CC1
35 | 53 | CC(C)(C)OC(=O)N1CCN(C(=O)[C@H](Cc2ccc(OS(=O)(=O)c3cccc4cccnc34)cc2)NC(=O)OCc2ccccc2)CC1
36 | 47 | CC(C)(C)OC(=O)N1CCN(C(=O)[C@H](Cc2ccc(OC(=O)c3ccccc3)cc2)NC(=O)OCc2ccccc2)CC1
37 | < 10 | CC(C)(C)OC(=O)N1CCN(C(=O)[C@H](Cc2ccc(O)cc2)NC(=O)OCc2ccccc2)CC1
38 | < 10 | CC(C)(C)OC(=O)N1CCN(C(=O)[C@H](Cc2ccc(OC(=O)OCc3ccccc3)cc2)NC(=O)OCc2ccccc2)CC1
39 | < 10 | CCOC(=O)Oc1ccc(C[C@H](NC(=O)OCc2ccccc2)C(=O)N2CCN(C(=O)OC(C)(C)C)CC2)cc1

Molecular target: T1, P2X purinoceptor 7
Assay: Antagonist activity at P2X7 receptor in human THP1 cells assessed as inhibition of BzATP-induced ethidium uptake
Assay type: functional, cell-based, THP-1
Conditions: not given

Row | SMILES | IC50 [nM]
40 | O=C(CC12CC3CC(CC(C3)C1)C2)Nc1cccc2nc(NCCCO)ccc12 | 7.94
41 | CCS(=O)(=O)N1CCc2c(ccc(C)c2NC(=O)Cc2ccc(C(F)(F)F)c(F)c2)C1 | 25.1
42 | Cc1ccc2nc(CCNCCCO)ccc2c1NC(=O)CC12CC3CC(CC(C3)C1)C2 | 15.8
43 | O=C(NC12CC3CC(CC(C3)C1)C2)c1ccccc1Cl | > 10000
44 | CN(CCO)CCc1cc(C(=O)NCC23CC4CC(CC(C4)C2)C3)c(Cl)cn1 | 15.8
45 | O=C(CC12CC3CC(CC(C3)C1)C2)Nc1c(Cl)ccc2nc(CN3CCN(CCO)CC3)ccc12 | 20
46 | CC(=O)NC(CCc1ccncc1)COc1ccc(-c2cccc([N+](=O)[O-])c2)cc1 (centres undefined) | > 10000
47 | O=C(NCC1(O)CCCCC1)c1cc(-n2ncc(=O)[nH]c2=O)ccc1Cl | 398
48 | CNC[C@@H](O)Cc1ccc(Cl)c(C(=O)NCC23CC4CC(CC(C4)C2)C3)c1 | 10
49 | O=C(NCC12CC3CC(CC(C3)C1)C2)c1cc(-n2ncc(=O)[nH]c2=O)ccc1Cl | 50.1
50 | CC(C)C(CO)n1ccc2c(NC(=O)CC34CC5CC(CC(C5)C3)C4)cccc2c1=O (centres undefined) | 0.0501
51 | Cc1ccc2c(NC(=O)C[C@H](C)c3ccccc3)c(Cl)ccc2n1 | 316
52 | COC(=O)NC(CCc1ccncc1)COc1ccc(-c2cccc([N+](=O)[O-])c2)cc1 (centres undefined) | > 10000
53 | O=C(NCC12CC3CC(CC(C3)C1)C2)c1ccc(Cl)cc1 | > 10000
54 | C[C@@H](C(N)=O)n1ccc2c(NC(=O)CC34CC5CC(CC(C5)C3)C4)c(Cl)ccc2c1=O | 0.0794
55 | CCCCC(CC)CNC(=O)c1cc(-n2ncc(=O)[nH]c2=O)ccc1Cl (centres undefined) | 794
56 | O=C(CC1CCCCC1)Nc1c(Cl)ccc2nc(NCCCO)ccc12 | 25.1

Next, values leading:

Row | IC50 [nM] | SMILES
57 | 3.16 | O=C(CC1CCCCCC1)Nc1cccc2c(=O)n([C@H]3CCNC3)ccc12
58 | > 10000 | COC(=O)N(C)C(CCc1ccncc1)COc1ccc(-c2cccc([N+](=O)[O-])c2)cc1 (centres undefined)
59 | 0.316 | O=C(Cc1cccc(C(F)(F)F)c1F)Nc1c(Cl)ccc2c(=O)n(C3CC3)ccc12
60 | 79.4 | O=C(Cc1ccc(C(F)(F)F)c(F)c1)Nc1cccc2c1CCN(C(=O)[C@H]1CCCN1)C2
61 | 126 | Clc1cccc(-c2nnnn2Cc2c(Cl)cccc2Cl)c1Cl
62 | 501 | CS(=O)(=O)NC(=O)NCCCc1ccc2c(C(=O)NCC3CCCCC3)c(Cl)ccc2n1
63 | 2.51 | O=C(Cc1ccc(F)c(C(F)(F)F)c1)Nc1cccc2c(=O)n([C@@H]3CNC[C@H]3O)ccc12

Same assay, conditions: read-out: pA2 (converted)

Row | Kb [nM] | SMILES
64 | 158 | Cc1ccccc1NC(=O)CC12CC3CC(CC(C3)C1)C2
65 | 1.58 | COc1ccc(Cl)c(C(=O)NCC23CC4CC(CC(C4)C2)C3)c1

Same assay, conditions: thp-1

Row | SMILES | pIC50
66 | CN(C(=O)c1ccc(N2CCC(N3C(=O)OCc4ccccc43)CC2)c([N+](=O)[O-])c1)C1CCCCC1 | >= 4.5
67 | CC(CO)NC(=O)c1cnc(N2CCC(N3C(=O)OCc4ccccc43)CC2)nc1C(F)(F)F (centres undefined) | >= 4.5
68 | NC1CCN(c2nccc(C(=O)NCC34CC5CC(CC(C5)C3)C4)c2Cl)CC1 | > 5
69 | O=C(NCC12CC3CC(CC(C3)C1)C2)c1cc(OC2CCNCC2)ncc1Cl | > 5
70 | Cc1cccc(C)c1NC(=O)CN1CC2CCC(C1)N2c1ncnc2sccc12 | >= 5
71 | C[C@@H]1CN(CC(=O)Nc2cccc3ncccc23)CCN1S(=O)(=O)c1ccc(S(C)(=O)=O)cc1 | >= 5
72 | O=C(NCC12CC3CC(CC(C3)C1)C2)c1ccnc(NCC2CCNCC2)c1Cl | > 5
73 | O=C(NCC12CC3CC(CC(C3)C1)C2)c1cc(N2CCNCC2)ncc1Cl | > 5
74 | O=C(O)CNCCNc1ccc(Cl)c(C(=O)NCC23CC4CC(CC(C4)C2)C3)c1 | > 5
75 | O=C(NCC12CC3CC(CC(C3)C1)C2)c1cc(OCCCNCCCO)ccc1Cl | > 5
76 | CC(C)NC(=O)c1cnc(N2CCC(N3C(=O)OCc4ccccc43)CC2)c(Cl)c1 | >= 4.5
77 | O=C(NCC12CC3CC(CC(C3)C1)C2)c1ccnc(N2CCNCC2)c1Cl | > 5

Results, then the compound that gave them:

Row | pIC50 | SMILES
78 | > 4.5 | O=C(CNc1ccc(F)c(F)c1)Nc1cc(OC2CCNCC2)ccc1Cl
79 | > 5 | O=C(NCC12CC3CC(CC(C3)C1)C2)c1cc(CCCNCCc2cnc[nH]2)ccc1Cl
